From patent publication US7862838B1, “Composition and regimen for the treatment of herpes simplex and herpes zoster primarily by eliminating their pathogenetic conditions and taking into account both pathogenesis and etiology” (priority 2009, dated 2011)

How the values were obtained:
herpes zoster = experiment: Treatment of herpes zoster in patients, case report and general statement; assay type: in vivo; details: case 5, herpes zoster around right eye
From the text: The average total period of treatment with the present invention is from about 2-4 days for herpes simplex and from about 3-7 days for herpes zoster. After the acute stage, crusts of the lesion form and fall off gradually, and then a red spot or spots remain for some more days. […] […] For quicker relief, the patient preferred to take the formula of the present invention along with acyclovir.

herpes simplex = experiment: Treatment and prevention of herpes simplex (lips, mouth) in patients, case reports and general statements; assay type: in vivo; details: large dosage (200-500 mg), applicant's experience
Description: The treatment regimen of the present invention comprises: Initially, administering to the patient 2 capsules (or tablets, the same hereinafter) of said formula orally every 2-4 hours. The dosage may be higher in severe cases, and may be adjusted by the prescribing health care provider. When symptoms are alleviated (see description below), usually after 1-2 days, administer 1 capsule of said formula every 4 hours until symptoms disappear. The average total period of treatment with the present invention is from about 2-4 days for herpes simplex and from about 3-7 days for herpes zoster. After the acute stage, crusts of the lesion form and fall off gradually, and then a red spot or spots remain for some more days. The formula of the present invention can be used for therapeutic prevention of herpes simplex: Whenever the patient feels a stinging and burning sensation on the potential site, or feels roughness on the tip of the tongue, they can ingest 1-2 capsules of the formula, and repeat every 2-4 hours if necessary. […] After several such preventive measures, recurrence of herpes simplex will be less and less likely, or latent for a sustained period. […] Patient stated that they had had recurrent maceration in the angles of the mouth since childhood. […]

## Nc1nc2c(ncn2COCCO)c(=O)[nH]1 [acyclovir]
Herpes zoster
  pain relief before treatment with the formula: got some relief

## CC(C)Cc1ccc(C(C)C(=O)O)cc1 (stereo not drawn) [Ibuprofen]
Herpes zoster
  pain relief before treatment with the formula: effective only for a short time

## O=C1O[C@H]([C@@H](O)CO)C(O)=C1O [vitamin C]
Herpes simplex
  effect on the course of herpes simplex: made herpes simplex worse
